Assays:
Format in all cases: cell-based
HBeAg = experiment: PHH HBV natural infection assay, HBeAg (alphalisa); conditions: Hepatitis B virus, Hepatocyte, read-out: HBeAg IC50
How it was run: (§1)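 Primary human hepatocytes infected with HBV at 200 GE/cell plus 4% PEG8000 for 24 h, then sandwich-cultured 72 h in medium with 1% DMSO. Compound applied twice at 72-h intervals; supernatant HBsAg and HBeAg quantified by AlphaLISA.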

[1] = Cytotoxicity in PHH natural infection assay (Cell Counting Kit-8); conditions: HBV-infected primary human hepatocytes, CCK8
How it was run: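 HBV-infected primary human hepatocytes (200 GE/cell, 4% PEG8000, 24 h), then sandwich-cultured 72 h. Cells dosed at varying concentrations for two 72-hour cycles, with medium refreshed. Cytotoxicity read by CCK-8 at end of treatment.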

HBsAg = experiment: PHH HBV natural infection assay, HBsAg (alphalisa); conditions: Hepatitis B virus, Hepatocyte, read-out: HBsAg IC50
How it was run: as §1

SMILES: O=C(NC1CCC2(CC1)CCN(c1nc3cc(Cl)ccc3o1)CC2)c1ccnc(C(F)(F)F)c1 [Example 105, N-[3-(5-chloro-1,3-benzoxazol-2-yl)-3-azaspiro[5.5]undecan-9-yl]-2-(trifluoromethyl)pyridine-4-carboxamide]
- IC50 (HBeAg): 1.03 µM
- CC50 at 144 h [1]: 59 µM
- IC50 (HBsAg): 1.12 µM

SMILES: COc1cc(C(=O)NC2CCC3(CC2)CCN(c2nc4cc(Cl)ccc4o2)CC3)ccn1 [Example 106, N-[3-(5-chloro-1,3-benzoxazol-2-yl)-3-azaspiro[5.5]undecan-9-yl]-2-methoxy-pyridine-4-carboxamide]
- IC50 (HBeAg): 0.48 µM
- CC50 at 144 h [1]: > 100 µM
- IC50 (HBsAg): 0.59 µM

SMILES: Cc1cc(C(=O)NC2CCC3(CC2)CCN(c2nc4cc(Cl)ccc4o2)CC3)ccn1 [Example 107, N-[3-(5-chloro-1,3-benzoxazol-2-yl)-3-azaspiro[5.5]undecan-9-yl]-2-methyl-pyridine-4-carboxamide]
- IC50 (HBeAg): 0.427 µM
- CC50 at 144 h [1]: > 100 µM
- IC50 (HBsAg): 0.496 µM

SMILES: NS(=O)(=O)c1ccc(C(=O)NC2CCC3(CC2)CCN(c2nc4cc(Cl)ccc4o2)CC3)o1 [Example 108, N-[3-(5-chloro-1,3-benzoxazol-2-yl)-3-azaspiro[5.5]undecan-9-yl]-5-sulfamoyl-furan-2-carboxamide]
- IC50 (HBeAg): 4.18 µM
- CC50 at 144 h [1]: > 10 µM
- IC50 (HBsAg): 6.69 µM

SMILES: CS(=N)(=O)c1ccc(C(=O)NC2CCC3(CC2)CCN(c2nc4cc(Cl)ccc4o2)CC3)o1 (stereo not drawn) [Example 109, N-[3-(5-chloro-1,3-benzoxazol-2-yl)-3-azaspiro[5.5]undecan-9-yl]-5-(methylsulfonimidoyl)furan-2-carboxamide]
- IC50 (HBeAg): 4.66 µM
- CC50 at 144 h [1]: > 100 µM
- IC50 (HBsAg): 5.88 µM

SMILES: O=C(NC1CCC2(CC1)CCN(c1nc3ccccc3o1)CC2)c1ccnc(S(=O)(=O)C2CC2)c1 [Example 110, N-[3-(1,3-benzoxazol-2-yl)-3-azaspiro[5.5]undecan-9-yl]-2-cyclopropylsulfonyl-pyridine-4-carboxamide]
- IC50 (HBeAg): 5.58 µM
- CC50 at 144 h [1]: > 10 µM
- IC50 (HBsAg): 5.84 µM

SMILES: O=C(NC1CCC2(CC1)CCN(c1nc3cc(Cl)ccc3o1)CC2)c1ccc(S(=O)(=O)NC(=O)C2CCC2)o1 [Example 111, N-[3-(5-chloro-1,3-benzoxazol-2-yl)-3-azaspiro[5.5]undecan-9-yl]-5-(cyclobutanecarbonylsulfamoyl)furan-2-carboxamide]
- IC50 (HBeAg): 3.47 µM
- CC50 at 144 h [1]: 85.7 µM
- IC50 (HBsAg): 5.45 µM

SMILES: CS(=O)(=O)Cc1ccc(C(=O)NC2CCC3(CC2)CCN(c2nc4cc(Cl)ccc4o2)CC3)o1 [Example 112, N-[3-(5-chloro-1,3-benzoxazol-2-yl)-3-azaspiro[5.5]undecan-9-yl]-5-(methylsulfonylmethyl)furan-2-carboxamide]
- IC50 (HBeAg): 4.24 µM
- CC50 at 144 h [1]: > 10 µM
- IC50 (HBsAg): 3.68 µM

SMILES: CS(=O)(=O)c1ccc(C(=O)NC2CCC3(CC2)CCN(c2nc4cc(Cl)ccc4o2)CC3)o1 [Example 113, N-[3-(5-chloro-1,3-benzoxazol-2-yl)-3-azaspiro[5.5]undecan-9-yl]-5-methylsulfonyl-furan-2-carboxamide]
- IC50 (HBeAg): 3.27 µM
- CC50 at 144 h [1]: > 100 µM
- IC50 (HBsAg): 3.59 µM

SMILES: CCS(=N)(=O)c1ccc(C(=O)NC2CCC3(CC2)CCN(c2nc4cc(Cl)ccc4o2)CC3)o1 (stereo not drawn) [Example 114, N-[3-(5-chloro-1,3-benzoxazol-2-yl)-3-azaspiro[5.5]undecan-9-yl]-5-(ethylsulfonimidoyl)furan-2-carboxamide]
- IC50 (HBeAg): 3.1 µM
- CC50 at 144 h [1]: 93.3 µM
- IC50 (HBsAg): 3.54 µM

SMILES: O=C(NC1CCC2(CC1)CCN(c1nc3cc(Cl)ccc3o1)CC2)c1ccc(C(F)(F)F)o1 [Example 115, N-[3-(5-chloro-1,3-benzoxazol-2-yl)-3-azaspiro[5.5]undecan-9-yl]-5-(trifluoromethyl)furan-2-carboxamide]
- IC50 (HBeAg): 2.64 µM
- CC50 at 144 h [1]: > 100 µM
- IC50 (HBsAg): 2.92 µM

SMILES: C[S+]([O-])c1ccc(C(=O)NC2CCC3(CC2)CCN(c2nc4cc(Cl)ccc4o2)CC3)o1 (stereo not drawn) [Example 116, N-[3-(5-chloro-1,3-benzoxazol-2-yl)-3-azaspiro[5.5]undecan-9-yl]-5-methylsulfinyl-furan-2-carboxamide]
- IC50 (HBeAg): 2.34 µM
- CC50 at 144 h [1]: 68.5 µM
- IC50 (HBsAg): 2.86 µM

SMILES: CCS(=O)(=O)c1ccc(C(=O)NC2CCC3(CC2)CCN(c2nc4cc(Cl)ccc4o2)CC3)o1 [Example 117, N-[3-(5-chloro-1,3-benzoxazol-2-yl)-3-azaspiro[5.5]undecan-9-yl]-5-ethylsulfonyl-furan-2-carboxamide]
- IC50 (HBeAg): 2.91 µM
- CC50 at 144 h [1]: > 100 µM
- IC50 (HBsAg): 2.37 µM

SMILES: O=C(NC1CCC2(CC1)CCN(c1nc3cc(Cl)ccc3o1)CC2)c1ccnc(S(=O)(=O)C2CC2)c1 [Example 118, N-[3-(5-chloro-1,3-benzoxazol-2-yl)-3-azaspiro[5.5]undecan-9-yl]-2-cyclopropylsulfonyl-pyridine-4-carboxamide]
- IC50 (HBeAg): 2.36 µM
- CC50 at 144 h [1]: > 10 µM
- IC50 (HBsAg): 2.37 µM

SMILES: N=S(=O)(CC1CC1)c1ccc(C(=O)NC2CCC3(CC2)CCN(c2nc4cc(Cl)ccc4o2)CC3)o1 (stereo not drawn) [Example 119, N-[3-(5-chloro-1,3-benzoxazol-2-yl)-3-azaspiro[5.5]undecan-9-yl]-5-(cyclopropylmethylsulfonimidoyl)furan-2-carboxamide]
- IC50 (HBeAg): 1.36 µM
- CC50 at 144 h [1]: 85.8 µM
- IC50 (HBsAg): 1.92 µM

SMILES: N=S(=O)(c1ccc(C(=O)NC2CCC3(CC2)CCN(c2nc4cc(Cl)ccc4o2)CC3)o1)C1CC1 (stereo not drawn) [Example 120, N-[3-(5-chloro-1,3-benzoxazol-2-yl)-3-azaspiro[5.5]undecan-9-yl]-5-(cyclopropylsulfonimidoyl)furan-2-carboxamide]
- IC50 (HBeAg): 1.43 µM
- CC50 at 144 h [1]: 66.6 µM
- IC50 (HBsAg): 1.55 µM

SMILES: O=C(NC1CCC2(CC1)CCN(c1nc3cc(Cl)ccc3o1)CC2)c1ccc(S(=O)(=O)CC2CC2)o1 [Example 121, N-[3-(5-chloro-1,3-benzoxazol-2-yl)-3-azaspiro[5.5]undecan-9-yl]-5-(cyclopropylmethylsulfonyl)furan-2-carboxamide]
- IC50 (HBeAg): 1.16 µM
- CC50 at 144 h [1]: > 100 µM
- IC50 (HBsAg): 1.54 µM

SMILES: O=C(NC1CCC2(CC1)CCN(c1nc3cc(Cl)ccc3o1)CC2)c1ccc(S(=O)(=O)C2CC2)o1 [Example 122, N-[3-(5-chloro-1,3-benzoxazol-2-yl)-3-azaspiro[5.5]undecan-9-yl]-5-cyclopropylsulfonyl-furan-2-carboxamide]
- IC50 (HBeAg): 0.473 µM
- CC50 at 144 h [1]: > 100 µM
- IC50 (HBsAg): 0.384 µM

SMILES: O=C(NC1CC2CN(c3nc4cc(Cl)ccc4o3)CC2C1)c1ccc(C(F)(F)F)o1 (stereo not drawn) [Example 123, N-[2-(5-chloro-1,3-benzoxazol-2-yl)-3,3a,4,5,6,6a-hexahydro-1H-cyclopenta[c]pyrrol-5-yl]-5-(trifluoromethyl)furan-2-carboxamide]
- IC50 (HBeAg): 5.47 µM
- CC50 at 144 h [1]: > 100 µM
- IC50 (HBsAg): 4.81 µM

SMILES: O=C(NC1CC2CN(c3nc4cc(Cl)ccc4o3)CC2C1)C1CCS(=O)(=O)C1 (stereo not drawn) [Example 124, N-[2-(5-chloro-1,3-benzoxazol-2-yl)-3,3a,4,5,6,6a-hexahydro-1H-cyclopenta[c]pyrrol-5-yl]-1,1-dioxo-thiolane-3-carboxamide]
- IC50 (HBeAg): 13 µM
- CC50 at 144 h [1]: > 100 µM
- IC50 (HBsAg): 6.59 µM

SMILES: O=C(NC1C2CN(c3nc4cc(Cl)ccc4o3)CC21)c1ccc(C(F)(F)F)o1 (stereo not drawn) [Example 125, N-[3-(5-chloro-1,3-benzoxazol-2-yl)-3-azabicyclo[3.1.0]hexan-6-yl]-5-(trifluoromethyl)furan-2-carboxamide]
- IC50 (HBeAg): 5.41 µM
- CC50 at 144 h [1]: > 100 µM
- IC50 (HBsAg): 4.74 µM
